Source: ChEMBL document CHEMBL6109072, “Discovery of highly potent dual GSPT1/BRD4 degraders with anti-AML activity” (Eur J Med Chem, 2025)
pIC50: −log10 of the molar value. Calls of active or inactive are those of the source. The calls are words filed in the database; no cut-off is given here.

Tests used:
[1] = test system: MOLM-13; test: Antiproliferative activity against human MOLM-13 cells incubated for 3 days by CCK8 assay; assay type: functional, cell-based; details: MOLM-13, 72 h
[2] = test system: MOLM-13; test: Induction of apoptosis in human MOLM-13 cells assessed as late apoptotic cells at 0.1 uM incubated for 6 hrs by Annexin V-APC/7-AAD staining based flow cytometry (reference value: 0.01 %); assay type: functional
[3] = target: T1, Protein cereblon/Eukaryotic peptide chain release factor GTP-binding subunit ERF3A (Homo sapiens, UniProt Q96SW2+P15170); test: PROTAC activity at CRBN/GSPT1 in human MOLM-13 cells assessed as GSPT1 degradation incubated for 24 hrs by Western blot analysis; assay type: cell-based
Target sequence in this assay (Q96SW2 whole entry): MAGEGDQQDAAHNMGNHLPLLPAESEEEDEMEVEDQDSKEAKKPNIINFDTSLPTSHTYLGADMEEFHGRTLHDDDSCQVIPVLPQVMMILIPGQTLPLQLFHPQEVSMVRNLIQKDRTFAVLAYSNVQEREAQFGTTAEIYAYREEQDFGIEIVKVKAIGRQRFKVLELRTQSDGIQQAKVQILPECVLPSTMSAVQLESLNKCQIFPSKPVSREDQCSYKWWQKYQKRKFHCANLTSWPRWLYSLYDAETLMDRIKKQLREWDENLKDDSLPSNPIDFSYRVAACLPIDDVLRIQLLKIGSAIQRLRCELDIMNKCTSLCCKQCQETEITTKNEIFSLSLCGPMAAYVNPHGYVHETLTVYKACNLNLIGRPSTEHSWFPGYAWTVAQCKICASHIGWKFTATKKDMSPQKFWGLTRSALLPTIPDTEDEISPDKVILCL
Target sequence in this assay (P15170 whole entry): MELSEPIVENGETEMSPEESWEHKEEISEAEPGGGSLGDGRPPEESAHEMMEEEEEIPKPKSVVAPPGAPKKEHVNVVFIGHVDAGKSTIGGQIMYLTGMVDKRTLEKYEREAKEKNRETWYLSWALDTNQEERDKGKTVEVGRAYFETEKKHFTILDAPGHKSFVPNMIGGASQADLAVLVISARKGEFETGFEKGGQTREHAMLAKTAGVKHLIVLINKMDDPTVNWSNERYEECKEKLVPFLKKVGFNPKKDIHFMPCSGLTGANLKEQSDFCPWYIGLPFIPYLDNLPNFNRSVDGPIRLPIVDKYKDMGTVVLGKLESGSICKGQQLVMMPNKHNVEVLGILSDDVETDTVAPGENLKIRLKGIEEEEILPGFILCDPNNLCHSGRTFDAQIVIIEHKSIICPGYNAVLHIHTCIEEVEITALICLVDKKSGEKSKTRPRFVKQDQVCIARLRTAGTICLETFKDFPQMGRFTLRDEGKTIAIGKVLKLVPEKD

[4] = test system: MOLM-13; test: Induction of apoptosis in human MOLM-13 cells assessed as necrotic cells at 0.1 uM incubated for 12 hrs by Annexin V-APC/7-AAD staining based flow cytometry (reference value: 2.79 %); assay type: functional
[5] = test system: MOLM-13; test: Antiproliferative activity against human MOLM-13 cells assessed as cell viability at 0.1 uM incubated for 3 days by CCK8 assay relative to control; assay type: functional; details: MOLM-13, 72 h, time 3 day, read-out: Activity
[6] = test system: MOLM-13; test: Antitumor activity against human MOLM-13 cells expressing GFP-Fluc xenografted in IL2Rg-null NSG mouse assessed as reduction in spleen weight at 2.5 mg/kg, ip bid treated for 21 days; assay type: functional, organism-based; details: time 21.0 day
[7] = test system: MOLM-13; test: Induction of cell cycle arrest in human MOLM-13 cells assessed as accumulation at G1 phase at 0.1 uM incubated for 6 to 12 hrs by PI staining based flow cytometry; assay type: functional; details: time 6-12 hrs
[8] = target: T2, Protein cereblon/Bromodomain-containing protein 4 (Homo sapiens, UniProt O60885+Q96SW2); test: PROTAC activity at CRBN/BRD4 in human MOLM-13 cells assessed as BRD4 degradation incubated for 24 hrs by Western blot analysis; assay type: cell-based
T2 sequence (Q96SW2 whole entry, looked up, other chains not shown): as the sequence (Q96SW2 whole entry) above

[9] = test system: THP-1; test: Antiproliferative activity against human THP-1 cells incubated for 3 days by CCK8 assay; assay type: functional, cell-based; details: THP-1, 72 h
[10] = test system: MOLM-13; test: Induction of apoptosis in human MOLM-13 cells assessed as viable cells at 0.1 uM incubated for 24 hrs by Annexin V-APC/7-AAD staining based flow cytometry (reference value: 97.12 %); assay type: functional; details: read-out: Activity
[11] = test system: MOLM-13; test: Induction of apoptosis in human MOLM-13 cells assessed as necrotic cells at 0.1 uM incubated for 6 hrs by Annexin V-APC/7-AAD staining based flow cytometry (reference value: 2.79 %); assay type: functional
[12] = test system: MOLM-13; test: Antitumor activity against human MOLM-13 cells expressing GFP-Fluc xenografted in IL2Rg-null NSG mouse assessed as reduction in GFP-positive leukemic cells in bone marrow at 2.5 mg/kg, ip bid treated for 21 days by flow cytometry; assay type: functional, organism-based; details: time 21.0 day
[13] = test system: Daudi; test: Antiproliferative activity against human Daudi cells incubated for 3 days by CCK8 assay; assay type: functional, cell-based; details: 72 h
[14] = test system: MOLM-13; test: Antitumor activity against human MOLM-13 cells expressing GFP-Fluc xenografted in IL2Rg-null NSG mouse assessed as reduction in leukemia burden at 2.5 mg/kg, ip bid treated for 21 days by bioluminescence imaging based analysis; assay type: functional, organism-based; details: time 21.0 day
[15] = target: T2, Protein cereblon/Bromodomain-containing protein 4; test: PROTAC activity at CRBN/BRD4 in human MOLM-13 cells assessed as BRD4 degradation at 100 nM incubated for 6 hrs by Western blot analysis; assay type: cell-based
[16] = test system: HL-60; test: Antiproliferative activity against human HL-60 cells incubated for 3 days by CCK8 assay; assay type: functional, cell-based; details: HL-60, 72 h
[17] = Toxicity in IL2Rg-null NSG mouse xenografted with human MOLM-13 cells expressing GFP-Fluc assessed as drug tolerance at 2.5 mg/kg, ip bid treated for 18 days; assay type: organism-based; details: in vivo, 432 h, time 18 day
[18] = target: T2, Protein cereblon/Bromodomain-containing protein 4; test: PROTAC activity at CRBN/BRD4 in human MOLM-13 cells assessed as BRD4 degradation at 1 uM incubated for 24 hrs by Western blot analysis; assay type: cell-based
[19] = test system: MOLM-13; test: Induction of apoptosis in human MOLM-13 cells assessed as late apoptotic cells at 0.1 uM incubated for 24 hrs by Annexin V-APC/7-AAD staining based flow cytometry (reference value: 0.01 %); assay type: functional
[20] = test system: MOLM-13; test: Induction of apoptosis in human MOLM-13 cells assessed as necrotic cells at 0.1 uM incubated for 24 hrs by Annexin V-APC/7-AAD staining based flow cytometry (reference value: 2.79 %); assay type: functional
[21] = test system: MOLM-13; test: Induction of apoptosis in human MOLM-13 cells assessed as early apoptotic cells at 0.1 uM incubated for 24 hrs by Annexin V-APC/7-AAD staining based flow cytometry (reference value: 0.08 %); assay type: functional
[22] = test system: MOLM-13; test: Antitumor activity against human MOLM-13 cells expressing GFP-Fluc xenografted in IL2Rg-null NSG mouse assessed as reduction in GFP-positive leukemic cells in spleen at 2.5 mg/kg, ip bid treated for 21 days by flow cytometry; assay type: functional, organism-based; details: time 21.0 day
[23] = test system: MOLM-13; test: Antitumor activity against human MOLM-13 cells expressing GFP-Fluc xenografted in IL2Rg-null NSG mouse assessed as prolongation of median survival time at 2.5 mg/kg, ip bid treated for 21 days; assay type: functional, organism-based; details: time 21.0 day
[24] = Toxicity in IL2Rg-null NSG mouse xenografted with human MOLM-13 cells expressing GFP-Fluc assessed as body weight change at 2.5 mg/kg, ip bid treated for 18 days; assay type: organism-based; details: in vivo, 432 h, time 18 day
[25] = test system: MOLM-13; test: Antitumor activity against human MOLM-13 cells expressing GFP-Fluc xenografted in IL2Rg-null NSG mouse assessed as reduction in GFP-positive leukemic cells in peripheral blood at 2.5 mg/kg, ip bid treated for 21 days by flow cytometry; assay type: functional, organism-based; details: time 21.0 day
[26] = test system: SU-DHL-1; test: Antiproliferative activity against human SU-DHL-1 cells incubated for 3 days by CCK8 assay; assay type: functional, cell-based; details: SU-DHL-1, 72 h
[27] = test system: MOLM-13; test: Induction of apoptosis in human MOLM-13 cells assessed as early apoptotic cells at 0.1 uM incubated for 6 hrs by Annexin V-APC/7-AAD staining based flow cytometry (reference value: 0.08 %); assay type: functional
[28] = target: T1, Protein cereblon/Eukaryotic peptide chain release factor GTP-binding subunit ERF3A; test: PROTAC activity at CRBN/GSPT1 in human MOLM-13 cells assessed as GSPT1 degradation at 100 nM incubated for 6 hrs by Western blot analysis; assay type: cell-based
Target sequence in this assay (P15170 whole entry, looked up): as the sequence (P15170 whole entry) above
Target sequence in this assay (Q96SW2 whole entry, looked up): as the sequence (Q96SW2 whole entry) above

[29] = test system: MOLM-13; test: Induction of apoptosis in human MOLM-13 cells assessed as early apoptotic cells at 0.1 uM incubated for 12 hrs by Annexin V-APC/7-AAD staining based flow cytometry (reference value: 0.08 %); assay type: functional
[30] = test system: MOLM-13; test: Induction of apoptosis in human MOLM-13 cells assessed as viable cells at 0.1 uM incubated for 6 hrs by Annexin V-APC/7-AAD staining based flow cytometry (reference value: 97.12 %); assay type: functional; details: read-out: Activity
[31] = test system: MOLM-13; test: Induction of apoptosis in human MOLM-13 cells assessed as viable cells at 0.1 uM incubated for 12 hrs by Annexin V-APC/7-AAD staining based flow cytometry (reference value: 97.12 %); assay type: functional; details: read-out: Activity
[32] = test system: MOLM-13; test: Induction of apoptosis in human MOLM-13 cells assessed as late apoptotic cells at 0.1 uM incubated for 12 hrs by Annexin V-APC/7-AAD staining based flow cytometry (reference value: 0.01 %); assay type: functional
[33] = test system: Raji; test: Antiproliferative activity against human Raji cells incubated for 3 days by CCK8 assay; assay type: functional, cell-based; details: 72 h
[34] = test system: OCI-AML-3; test: Antiproliferative activity against human OCI-AML-3 cells incubated for 3 days by CCK8 assay; assay type: functional, cell-based; details: Homo sapiens, OCI-AML-3, 72 h
[35] = test system: NB-4; test: Antiproliferative activity against human NB4 cells incubated for 3 days by CCK8 assay; assay type: functional, cell-based; details: NB-4, 72 h
[36] = Cytotoxicity in human PBMC cells at 62.5 to 1000 nM; assay type: toxicity, cell-based; details: 1 µM, dose 62.5-1000 nM
[37] = test system: KARPAS-299; test: Antiproliferative activity against human KARPAS-299 cells incubated for 3 days by CCK8 assay; assay type: functional, cell-based; details: Homo sapiens, KARPAS-299, 72 h

In the case of Cc1sc2c(c1C)C(c1ccc(Cl)cc1)=N[C@@H](CC(=O)N1CCN(CC3CCN(c4ccc5c(c4)C(=O)N(C4CCC(=O)NC4=O)C5=O)CC3)CC1)c1nnc(C)n1-2 (some centres not stated), the pIC50 [1] was 8.07, the Activity [2] was 0.3% and the DC50 [3] was 5.25 nM. For the same compound, the Activity [4] was 0.26%, the viability at 0.1 µM [5] was 7.02% and the Activity [6] was “Active; Compound Activity Consistent With Decreased Leukemic Infiltration”. For the same compound, the Activity [7] was “Active”, the DC50 [8] was 0.48 nM and the pIC50 [9] was 7.75. The viability at 0.1 µM [10] was 10.2%, the Activity [11] was 0.36% and the Activity [12] was “Active”. For the same compound, the pIC50 [13] was 8.05, the Activity [14] was “Active” and the Activity [15] was “Active”. The pIC50 [16] was 8.09, the Activity [17] was “Non-toxic” and the Activity [18] was “Active”. For the same compound, the Activity [19] was 21.1%, the Activity [20] was 1.18% and the Activity [21] was 67.5%. For the same compound, the Activity [22] was “Active”, the Activity [23] was “Active” and the Activity [24] was “Non-toxic”. For the same compound, the Activity [25] was “Active”, the pIC50 [26] was 8.20 and the Activity [27] was 20.64%. The Activity [28] was “Active”, the Activity [29] was 39.9% and the viability at 0.1 µM [30] was 78.7%. The viability at 0.1 µM [31] was 57.8%, the Activity [32] was 2.01% and the pIC50 [33] was 8.00. The pIC50 [34] was 7.84, the pIC50 [35] was 8.57 and the Activity [36] was “Non-toxic”. The pIC50 [37] was 7.59.
